Several values for one entry are separate records, joined by “and”; a condition that tells them apart may be missing. Identical values can stand only once.
Tests used:
[1] = for mass density: 101.33 kPa, X-ray diffraction; for Normal melting temperature: DTA
[2] = molar enthalpy of vaporization or sublimation; conditions: Static calorimetry
[3] = molar heat capacity at constant pressure; conditions: 101.33 kPa, Crystal 2, DSC
[4] = Molar enthalpy of transition or fusion; conditions: DSC

[C-]#[O+].[C-]#[O+].[C-]#[O+].[C-]#[O+].[C-]#[O+].[C-]#[O+].[C-]#[O+].[C-]#[O+].[C-]#[O+].[C-]#[O+].[Re].[Re] [decacarbonyldirhenium]
Conditions | mass density [kg/m3] | molar enthalpy [kcal/mol]
[1], 293 K, Crystal | 2932 | –
[2], 332.8 K, Crystal 2 | – | 23

Conditions | Molar enthalpy of transition or fusion [kcal/mol] | Normal melting temperature [°C] | Triple point temperature [K] | molar heat capacity at constant pressure [J/K/mol]
[1], Crystal 1 | – | 182.01 | – | –
[1], Crystal 2, DSC | – | – | 366.75 | –
[3], 298.15 K | – | – | – | 391.8
[3], 303.15 K | – | – | – | 396.5
[3], 308.15 K | – | – | – | 401.1
[3], 313.15 K | – | – | – | 405.5
[3], 318.15 K | – | – | – | 409.8
[3], 323.15 K | – | – | – | 413.9
[3], 328.15 K | – | – | – | 417.9
[3], 333.15 K | – | – | – | 421.8
[3], 338.15 K | – | – | – | 425.5
[4], Crystal 1 | 1 | – | – | –
[4], Crystal 2 | 3.66 | – | – | –

[CH3][Re](=[O])(=[O])=[O] [methyltrioxorhenium]
Crystal
Conditions | mass density, 167 K [kg/m3] | mass density, 214 K [kg/m3] | mass density, 296 K | molar enthalpy, 298 K [kcal/mol]
[1] | 4254 | 4199 | 4124 kg/m3 and 4132 kg/m3 | –
[2] | – | – | – | 16.79

Crystal
Conditions | Molar enthalpy of transition or fusion [kcal/mol] | Normal melting temperature [°C]
[1] | – | 112.59
[4] | 4.72 | –
